Patent US20070264354A1, “TREATMENT OF A WOUND WITH A VASODILATOR” (priority 2006, published 2007)
Where no end group is shown, it is not given here.

Assays:
diabetic wounds = conditions: cited from earlier work
[1] = tested on: capsaicin-sensitive cutaneous nerves (small sensory fibers); experiment: Heat-step heat pain threshold after acute topical capsaicin (primary hyperalgesia); assay type: in vivo, human
Experimental: In the heat-step procedure, basal blood flow was monitored at resting skin temperature and later at 32° C. The temperature was raised in increments of 2° C. per minute until a maximum temperature value of 48° C. was reached. Sensory responses (specifically, heat pain threshold, HPT) and peak net flows at each increment were documented. A second heat-step test followed an acute application of topical capsaicin to the skin to measure sensitization by HPT, i.e., primary hyperalgesia. Two normal and obese subjects complained that the pungency from the capsaicin was extreme and, as a consequence, the heat-step test for hyperalgesia was not conducted.

[2] = tested on: capsaicin-sensitive cutaneous nerves (small sensory fibers); experiment: Capsaicin-induced pungency (quality of sensation); assay type: in vivo, human
Experimental: Topical Capsaicin: Capsaicin, 8-methyl-N-vanillyl-6-nonenamide, is a vanilloid neurotoxin that targets somatic small primary afferent neurons. Capsaicin (1% in 75% ethanol, 25% saline) was applied topically for 45 minutes through a central chamber (300 μl capacity, 1 cm diameter) in a clear circular plastic perspex adhered to the skin. Throughout the application, perceptual responses and peak flow values were obtained. The vehicle was applied at different skin sites to 6 normal subjects.

[3] = tested on: capsaicin-sensitive cutaneous nerves (small sensory fibers); experiment: Capsaicin-induced desensitization (Cap-D); assay type: in vivo, human
Experimental: Capsaicin-Induced Desensitization: Eight (8) normal subjects were recruited to ascertain the degree of capsaicin sensitivity of each of the tests described above. Each subject applied topical capsaicin to one forearm and thigh, and the vehicle to the opposing limb in 45 minute applications, 3-4 times daily for 5 days.

[4] = tested on: capsaicin-sensitive cutaneous nerves (small sensory fibers); experiment: Acute topical capsaicin-induced cutaneous blood flow by laser Doppler flowmetry; assay type: in vivo, human
NOS = conditions: animals (Isenberg et al, 2005); cited from earlier work
leukocyte chemotaxis = conditions: subdermal air sacs, mice (Lawman et al, 1985); cited from earlier work
wound areas = conditions: 50 ul of 110 ug/ml solution topically (Li et al, 1980); cited from earlier work
venous stasis ulcers = conditions: CGRP and VIP given together by iontophoresis (Gherardini et al, 1998b); cited from earlier work

N=C(N)NCCC[C@H](N)C(=O)O [LA, L-Arginine]
wound healing (diabetic wounds; diabetic rats (Shi et al)): improve wound healing
wound NOx levels (diabetic wounds; diabetic wounds (Shi et al)): increased NOx levels to normal values

COc1cc(CNC(=O)CCCCC=CC(C)C)ccc1O [Capsaicin, 8-methyl-N-vanillyl-6-nonenamide]
Heat Step HPT Post-Cap - Hyperalgesia, Normal, Mean ([1]; after acute topical capsaicin, normal subjects): 37.1 °C
Heat Step HPT Post-Cap - Hyperalgesia, Obese, Mean ([1]; after acute topical capsaicin, obese subjects): 39.8 °C
fall in the HPT, average ([1]; both normal and obese groups, p<0.001): ~7 C
share of population with pronounced hyperalgesic response ([1]; normal population, n=11/13): ~90%
share of population with pronounced hyperalgesic response ([1]; obese population, n=43/53): Approximately 80%
capsaicin-induced pungency level ([2]; normal subjects): 90%
share perceiving burn/pain ([2]; normal subjects): approximately 80%
share reporting a stinging/prickly sensation ([2]; normal subjects): 20%
capsaicin-induced pungency level ([2]; obese subjects): 45%
heat-induced flux in heat-ramp test after Cap-D ([3]; direct and indirect flow, versus vehicle): decreased significantly
dose (mC)-response (flux) curve to transcutaneous electrical stimulation after Cap-D ([3]; indirect site): abolished neurogenic flare
blood flow on acute capsaicin challenge after Cap-D ([3]; normal subjects n=8): virtually no increased blood flow
pungency on acute capsaicin challenge after Cap-D ([3]; normal subjects n=8): no pungency
HPT after capsaicin-induced desensitization ([3]; topical capsaicin 3-4 times daily for 5 days, normal subjects n=8, maximum temperature utilized): > 48 °C
Capsaicin Latency, Indirect, Normal, Mean ([4]; latency to flare, indirect site, normal subjects): 12 min
Capsaicin Latency, Indirect, Obese, Mean ([4]; latency to flare, indirect site, obese subjects): 26 min
Capsaicin Latency, Direct, Normal, Mean ([4]; latency to vasodilatory response, direct site, normal subjects): 11 min
Capsaicin Latency, Direct, Obese, Mean ([4]; latency to vasodilatory response, direct site, obese subjects): 21 min
Capsaicin Flux, Direct, Normal, Mean ([4]; net peak flux, direct flow site, 1% topical capsaicin 45 min, forearm, normal subjects): 299 AU
Capsaicin Flux, Direct, Obese, Mean ([4]; net peak flux, direct flow site, 1% topical capsaicin 45 min, forearm, obese subjects): 159 AU
Capsaicin Flux, Indirect, Normal, Mean ([4]; net peak flux, indirect flow (flare) site, 1% topical capsaicin 45 min, normal subjects): 257 AU
Capsaicin Flux, Indirect, Obese, Mean ([4]; net peak flux, indirect flow (flare) site, 1% topical capsaicin 45 min, obese subjects): 128 AU

COC(=O)[C@@H](N)CCCNC(=N)N[N+](=O)[O-] [L-NAME]
vessel diameter and blood flow in skin flaps (NOS): marked decreases in vessel diameter and blood flow

NGF: Nerve growth factor, instrumental in the synthesis of sensory neuropeptides in the DRG
leukocyte chemotaxis (leukocyte chemotaxis): significantly increased leukocyte chemotaxis
wound healing (wound areas): markedly accelerated healing

VIP: Vasoactive Intestinal Polypeptide, peptide released by C-fibers (HSDAVFTDNYTRLRKQMAVKKYLNSILN; ends and bridges not checked; UniProt P01282 125-152, looked up)
healing of venous stasis ulcers (venous stasis ulcers): improved healing of venous stasis ulcers
